# Measured values published in patent publication US20250114345A1, “COMPOUNDS AND COMPOSITIONS AS CBP/P300 DEGRADERS AND USES THEREOF” (Oncopia Therapeutics, Inc. d/b/a/ SK Life Science Labs, priority 2023, published 2025).
# Target: T1, p300 (Homo sapiens, UniProt Q09472)
# T1 construct: host or cells: A549 P300 HiBit cells
# Assay: P300 degradation, HiBit technology in A549 P300 HiBit cells (2 h)
# Format: cell-based
# Details: 2 hrs post treatment; for Dmax: A549, A549 P300 HiBit cells; for DC50: A549 P300 HiBit cells
# How it was run: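 Cells: A549 HiBiT-tagged lines, 0.2×10^4/well, F-12K + 10% HI-FBS, equilibrated overnight. Tx: serial dilution of cpd (10 mM DMSO stock). Readout: HiBiT lytic reagent, 10 min RT shaking, luminescence → potency, Dmax.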
# T1 sequence (Q09472 whole entry): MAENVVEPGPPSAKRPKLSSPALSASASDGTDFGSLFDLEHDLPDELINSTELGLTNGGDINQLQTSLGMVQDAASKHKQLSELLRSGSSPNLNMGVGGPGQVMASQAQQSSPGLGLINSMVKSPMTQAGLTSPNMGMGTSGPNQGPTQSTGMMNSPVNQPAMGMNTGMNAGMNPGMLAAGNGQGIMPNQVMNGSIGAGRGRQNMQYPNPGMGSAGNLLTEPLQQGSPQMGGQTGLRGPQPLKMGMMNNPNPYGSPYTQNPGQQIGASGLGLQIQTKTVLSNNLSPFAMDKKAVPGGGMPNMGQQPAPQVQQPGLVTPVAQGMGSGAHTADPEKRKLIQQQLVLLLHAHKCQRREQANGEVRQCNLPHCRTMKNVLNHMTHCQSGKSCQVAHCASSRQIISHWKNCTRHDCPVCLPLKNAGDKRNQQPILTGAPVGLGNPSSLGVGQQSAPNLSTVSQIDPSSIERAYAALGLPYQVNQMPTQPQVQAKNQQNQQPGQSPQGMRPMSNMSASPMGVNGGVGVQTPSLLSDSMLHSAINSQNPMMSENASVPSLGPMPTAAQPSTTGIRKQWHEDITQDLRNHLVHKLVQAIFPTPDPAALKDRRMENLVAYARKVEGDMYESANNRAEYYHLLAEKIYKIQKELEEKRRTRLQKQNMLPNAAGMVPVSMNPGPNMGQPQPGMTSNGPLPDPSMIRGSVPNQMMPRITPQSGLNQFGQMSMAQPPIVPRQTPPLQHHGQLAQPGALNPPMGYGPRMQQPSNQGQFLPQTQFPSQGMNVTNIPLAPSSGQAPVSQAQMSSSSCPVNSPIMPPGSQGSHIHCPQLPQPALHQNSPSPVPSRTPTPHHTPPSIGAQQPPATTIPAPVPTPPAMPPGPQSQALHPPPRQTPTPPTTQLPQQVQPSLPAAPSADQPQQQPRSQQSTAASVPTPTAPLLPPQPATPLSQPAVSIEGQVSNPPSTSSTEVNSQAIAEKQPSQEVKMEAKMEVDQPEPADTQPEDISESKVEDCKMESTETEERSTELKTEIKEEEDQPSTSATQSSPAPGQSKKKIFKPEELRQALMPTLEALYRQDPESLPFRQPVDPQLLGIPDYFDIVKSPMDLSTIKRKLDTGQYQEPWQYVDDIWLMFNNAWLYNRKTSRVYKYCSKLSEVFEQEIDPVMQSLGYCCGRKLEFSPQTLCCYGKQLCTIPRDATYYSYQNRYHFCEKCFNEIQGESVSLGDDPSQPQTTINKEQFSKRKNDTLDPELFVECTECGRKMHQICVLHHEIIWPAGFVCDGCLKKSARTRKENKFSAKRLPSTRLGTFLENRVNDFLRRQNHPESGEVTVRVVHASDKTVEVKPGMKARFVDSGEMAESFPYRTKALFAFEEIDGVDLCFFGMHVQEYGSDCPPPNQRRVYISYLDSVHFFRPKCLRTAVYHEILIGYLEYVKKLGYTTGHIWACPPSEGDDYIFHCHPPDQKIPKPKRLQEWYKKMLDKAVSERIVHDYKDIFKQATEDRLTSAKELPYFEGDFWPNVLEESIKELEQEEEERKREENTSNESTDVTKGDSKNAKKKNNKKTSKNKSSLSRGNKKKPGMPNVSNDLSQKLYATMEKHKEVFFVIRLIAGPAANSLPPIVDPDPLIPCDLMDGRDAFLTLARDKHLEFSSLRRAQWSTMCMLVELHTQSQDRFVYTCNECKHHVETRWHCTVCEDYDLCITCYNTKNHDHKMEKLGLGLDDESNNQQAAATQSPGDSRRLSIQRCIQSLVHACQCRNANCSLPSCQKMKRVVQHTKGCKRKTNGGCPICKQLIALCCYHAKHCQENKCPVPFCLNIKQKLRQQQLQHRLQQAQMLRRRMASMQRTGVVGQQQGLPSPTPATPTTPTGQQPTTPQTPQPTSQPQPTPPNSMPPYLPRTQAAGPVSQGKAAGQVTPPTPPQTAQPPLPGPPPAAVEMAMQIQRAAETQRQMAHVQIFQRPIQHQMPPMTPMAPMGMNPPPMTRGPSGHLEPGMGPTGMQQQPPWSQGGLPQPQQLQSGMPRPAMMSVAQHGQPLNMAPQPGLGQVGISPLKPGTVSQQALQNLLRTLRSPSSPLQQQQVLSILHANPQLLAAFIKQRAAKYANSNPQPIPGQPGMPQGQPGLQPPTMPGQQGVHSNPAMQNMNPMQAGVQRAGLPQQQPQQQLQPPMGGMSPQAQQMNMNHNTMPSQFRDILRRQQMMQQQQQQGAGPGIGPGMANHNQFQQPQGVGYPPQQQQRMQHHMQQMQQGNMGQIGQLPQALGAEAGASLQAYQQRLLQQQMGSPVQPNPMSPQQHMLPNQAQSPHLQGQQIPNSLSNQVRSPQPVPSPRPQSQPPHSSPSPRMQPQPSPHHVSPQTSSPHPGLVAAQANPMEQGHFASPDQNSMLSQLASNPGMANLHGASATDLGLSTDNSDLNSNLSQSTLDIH
Compound,Dmax [%],DC50 [nM]
"Cc1cc2c(N3CCCc4nc(-c5ccc(C(=O)NCC=C=Cc6ccc7occ(C8CCC(=O)NC8=O)c7c6)nc5)ncc43)cc(C3CCOCC3)cc2n(C)c1=O (centres unmarked) [Example B116, 5-(5-(1,3-dimethyl-2-oxo-7-(tetrahydro-2H-pyran-4-yl)-1,2-dihydroquinolin-5-yl)-5,6,7,8-tetrahydropyrido[3,2-d]pyrimidin-2-yl)-N-(4-(3-(2,6-dioxopiperidin-3-yl)benzofuran-5-yl)buta-2,3-dien-1-yl)picolinamide]",40 to 59,10 to 99
"Cc1cc(N2CCCc3nc(-c4ccc(C(=O)NCC#Cc5cc6c(C7CCC(=O)NC7=O)cccc6o5)nc4)ncc32)c2cc(C)c(=O)n(C)c2n1 (centres unmarked) [Example B118, N-(3-(4-(2,6-dioxopiperidin-3-yl)benzofuran-2-yl)prop-2-yn-1-yl)-5-(5-(2,6,8-trimethyl-7-oxo-7,8-dihydro-1,8-naphthyridin-4-yl)-5,6,7,8-tetrahydropyrido[3,2-d]pyrimidin-2-yl) picolinamide]",> 80,1 to 9.9
"Cc1cc(N2CCCc3nc(-c4ccc(C(=O)NCC#Cc5cc6c(C7CCC(=O)NC7=O)nccc6o5)nc4)ncc32)c2cc(C)c(=O)n(C)c2c1 (centres unmarked) [Example B120, N-(3-(4-(2,6-dioxopiperidin-3-yl)furo[3,2-c]pyridin-2-yl)prop-2-yn-1-yl)-5-(5-(1,3,7-trimethyl-2-oxo-1,2-dihydroquinolin-5-yl)-5,6,7,8-tetrahydropyrido[3,2-d]pyrimidin-2-yl) picolinamide]",> 80,1 to 9.9
"CCc1cc2c(cc(C)c(=O)n2C)c(N2CCCc3nc(-c4ccc(C(=O)NCC#Cc5ccc6occ(C7CCC(=O)NC7=O)c6c5)nc4)ncc32)n1 (centres unmarked) [Example B121, N-(3-(3-(2,6-dioxopiperidin-3-yl)benzofuran-5-yl)prop-2-yn-1-yl)-5-(5-(7-ethyl-1,3-dimethyl-2-oxo-1,2-dihydro-1,6-naphthyridin-5-yl)-5,6,7,8-tetrahydropyrido[3,2-d]pyrimidin-2-yl)picolinamide]",40 to 59,1 to 9.9
"CCc1cc2c(N3CCCc4nc(-c5ccc(C(=O)NCC#Cc6ccc7occ(C8CCC(=O)NC8=O)c7c6)nc5)ncc43)cc(C3CCOCC3)cc2n(C)c1=O (centres unmarked) [Example B122, N-(3-(3-(2,6-dioxopiperidin-3-yl)benzofuran-5-yl)prop-2-yn-1-yl)-5-(5-(3-ethyl-1-methyl-2-oxo-7-(tetrahydro-2H-pyran-4-yl)-1,2-dihydroquinolin-5-yl)-5,6,7,8-tetrahydropyrido [3,2-d]pyrimidin-2-yl)picolinamide]",< 20,> 1000
"Cc1cc2c(N3CCCc4nc(-c5ccc(C(=O)NCC#Cc6ccc7occ(C8CCC(=O)NC8=O)c7c6)nc5)ncc43)cc(C(C)C)cc2n(C)c1=O (centres unmarked) [Example B125, N-(3-(3-(2,6-dioxopiperidin-3-yl)benzofuran-5-yl)prop-2-yn-1-yl)-5-(5-(7-isopropyl-1,3-dimethyl-2-oxo-1,2-dihydroquinolin-5-yl)-5,6,7,8-tetrahydropyrido[3,2-d]pyrimidin-2-yl)picolinamide]",> 80,1 to 9.9
"Cc1cc2c(N3CCCc4nc(-c5ccc(C(=O)NCC#Cc6cc7c(C8CCC(=O)NC8=O)cccc7o6)nc5)ncc43)cc(Cl)cc2n(C)c1=O (centres unmarked) [Example B126, 5-(5-(7-chloro-1,3-dimethyl-2-oxo-1,2-dihydroquinolin-5-yl)-5,6,7,8-tetrahydropyrido [3,2-d]pyrimidin-2-yl)-N-(3-(4-(2,6-dioxo-piperidin-3-yl)benzofuran-2-yl)prop-2-yn-1-yl)picolinamide]",> 80,1 to 9.9
"Cc1cc2c(N3CCCc4nc(-c5ccc(C(=O)NCC#Cc6ccc7occ(C8CCC(=O)NC8=O)c7c6)nc5)ncc43)nc(N(C)C)cc2n(C)c1=O (centres unmarked) [Example B128, 5-(5-(7-(dimethylamino)-1,3-dimethyl-2-oxo-1,2-dihydro-1,6-naphthyridin-5-yl)-5,6,7,8-tetrahydropyrido[3,2-d]pyrimidin-2-yl)-N-(3-(3-(2,6-dioxopiperidin-3-yl)benzofuran-5-yl)prop-2-yn-1-yl)picolinamide]",> 80,1 to 9.9
"Cc1cc2c(N3CCCc4cc(-c5ccc(C(=O)NCC#Cc6ccc7occ(C8CCC(=O)NC8=O)c7c6)nc5)c(F)cc43)cccc2n(C)c1=O (centres unmarked) [Example B129, N-(3-(3-(2,6-dioxopiperidin-3-yl)benzofuran-5-yl)prop-2-yn-1-yl)-5-(7-fluoro-1′,3′-dimethyl-2′-oxo-1′,2′,3,4-tetrahydro-2H-[1,5′-biquinolin]-6-yl)picolinamide]",> 80,1 to 9.9
"Cc1cc2c(N3CCCc4nc(-c5ccc(C(=O)NCC#Cc6ccc7occ(C8CCC(=O)NC8=O)c7c6)nc5)ncc43)nc(C(C)C)cc2n(C)c1=O (centres unmarked) [Example B130, N-(3-(3-(2,6-dioxopiperidin-3-yl)benzofuran-5-yl)prop-2-yn-1-yl)-5-(5-(7-isopropyl-1,3-dimethyl-2-oxo-1,2-dihydro-1,6-naphthyridin-5-yl)-5,6,7,8-tetrahydropyrido[3,2-d]pyrimidin-2-yl)picolinamide]",60 to 79,1 to 9.9
"CCc1cc(N2CCCc3cc(-c4ccc(C(=O)NCC#Cc5ccc6occ(C7CCC(=O)NC7=O)c6c5)nc4)c(F)cc32)c2cc(C)c(=O)n(C)c2c1 (centres unmarked) [Example B133, N-(3-(3-(2,6-dioxopiperidin-3-yl)benzofuran-5-yl)prop-2-yn-1-yl)-5-(7′-ethyl-7-fluoro-1′,3′-dimethyl-2′-oxo-1′,2′,3,4-tetrahydro-2H-[1,5′-biquinolin]-6-yl)picolinamide]",> 80,1 to 9.9
"Cc1cc2c(N3CCCc4cc(-c5ccc(C(=O)NCC#Cc6ccc7occ(C8CCC(=O)NC8=O)c7c6)nc5)c(F)cc43)cc(C(C)C)cc2n(C)c1=O (centres unmarked) [Example B134, N-(3-(3-(2,6-dioxopiperidin-3-yl)benzofuran-5-yl)prop-2-yn-1-yl)-5-(7-fluoro-7′-isopropyl-1′,3′-dimethyl-2′-oxo-1′,2′,3,4-tetrahydro-2H-[1,5′-biquinolin]-6-yl)picolinamide]",> 80,10 to 99
"Cc1cc(-c2ncc(N(C)c3cc(C4CCOCC4)cc4c3cc(C)c(=O)n4C)nn2)cnc1C(=O)NCC#Cc1ccc2occ(C3CCC(=O)NC3=O)c2c1 (centres unmarked) [Example B135, 5-(6-((1,3-dimethyl-2-oxo-7-(tetrahydro-2H-pyran-4-yl)-1,2-dihydroquinolin-5-yl) (methyl)amino)-1,2,4-triazin-3-yl)-N-(3-(3-(2,6-dioxopiperidin-3-yl)benzofuran-5-yl)prop-2-yn-1-yl)-3-methylpicolinamide]",< 20,> 1000
"Cc1cc2c(N3CCCc4nc(-c5ccc(C(=O)NCC#Cc6ccc7occ(C8CCC(=O)NC8=O)c7c6)nc5)ncc43)nc(N3CC[Si](C)(C)CC3)cc2n(C)c1=O (centres unmarked) [Example B139, 5-(5-(7-(4,4-dimethyl-1,4-azasilinan-1-yl)-1,3-dimethyl-2-oxo-1,2-dihydro-1,6-naphthyridin-5-yl)-5,6,7,8-tetrahydropyrido[3,2-d]pyrimidin-2-yl)-N-(3-(3-(2,6-dioxopiperidin-3-yl)benzofuran-5-yl)prop-2-yn-1-yl)picolinamide]",60 to 79,100 to 999
"Cc1cc2c(N3CCCc4cc(-c5ccc(C(=O)NCC#Cc6ccc7occ(C8CCC(=O)NC8=O)c7c6)nc5)ccc43)cc(C3CCOCC3)cc2n(C)c1=O (centres unmarked) [Example B140, 5-(1′,3′-dimethyl-2′-oxo-7′-(tetrahydro-2H-pyran-4-yl)-1′,2′,3,4-tetrahydro-2H-[1,5′-biquinolin]-6-yl)-N-(3-(3-(2,6-dioxopiperidin-3-yl)benzofuran-5-yl)prop-2-yn-1-yl) picolinamide]",60 to 79,1 to 9.9
"Cc1cc2c(N3CCCc4cc(-c5ccc(C(=O)NCC#Cc6ccc7occ(C8CCC(=O)NC8=O)c7c6)nc5)c(F)cc43)cc(C3CCOCC3)cc2n(C)c1=O (centres unmarked) [Example B143, N-(3-(3-(2,6-dioxopiperidin-3-yl)benzofuran-5-yl)prop-2-yn-1-yl)-5-(7-fluoro-1′,3′-dimethyl-2′-oxo-7′-(tetrahydro-2H-pyran-4-yl)-1′,2′,3,4-tetrahydro-2H-[1,5′-biquinolin]-6-yl) picolinamide]",> 80,1 to 9.9
"CCc1cc(-c2ncc3c(n2)CCCN3c2cc(C3CCOCC3)cc3c2cc(C)c(=O)n3C)cnc1C(=O)NCC#Cc1ccc2occ(C3CCC(=O)NC3=O)c2c1 (centres unmarked) [Example B144, 5-(5-(1,3-dimethyl-2-oxo-7-(tetrahydro-2H-pyran-4-yl)-1,2-dihydroquinolin-5-yl)-5,6,7,8-tetrahydropyrido[3,2-d]pyrimidin-2-yl)-N-(3-(3-(2,6-dioxopiperidin-3-yl)benzofuran-5-yl)prop-2-yn-1-yl)-3-ethylpicolinamide]",> 80,1 to 9.9
"Cc1cc2c(N3CCOc4cc(-c5ccc(C(=O)NCC#Cc6ccc7occ(C8CCC(=O)NC8=O)c7c6)nc5)c(F)cc43)cccc2n(C)c1=O (centres unmarked) [Example B145, 5-(4-(1,3-dimethyl-2-oxo-1,2-dihydroquinolin-5-yl)-6-fluoro-3,4-dihydro-2H-benzo[b][1,4]oxazin-7-yl)-N-(3-(3-(2,6-dioxopiperidin-3-yl)benzofuran-5-yl)prop-2-yn-1-yl) picolinamide]",> 80,1 to 9.9
"COC1CN(c2cc3c(cc(C)c(=O)n3C)c(-c3cccc4cc(-c5ccc(C(=O)NCC#Cc6ccc7occ(C8CCC(=O)NC8=O)c7c6)nc5)ncc34)n2)C1 (centres unmarked) [Example B146, N-(3-(3-(2,6-dioxopiperidin-3-yl)benzofuran-5-yl)prop-2-yn-1-yl)-5-(8-(7-(3-methoxyazetidin-1-yl)-1,3-dimethyl-2-oxo-1,2-dihydro-1,6-naphthyridin-5-yl)isoquinolin-3-yl) picolinamide]",> 80,1 to 9.9
